Data set [1] relates to rat aortic rings. The experiment in a line: Vasopressor-induced contraction of rat aortic rings, myograph. Here is the method: (§1) An isometric myograph (DMT 620M) was used for ex vivo measurement of vascular function. Eight-to 10-week old Sprague Dawley rats (purchased from Charles River Laboratories, Wilmington, MA) were first anesthetized with 3% isoflurane and then euthanized using inhaled desflurane. The aortas were isolated in an ice-cold, oxygenated (95% O2, 5% CO2) Krebs-Henseleit buffer (118.3 mM NaCl, 4.7 mM KCl, 1.2 mM MgSO4, 1.2 mM KH2PO4, 2.5 mM CaCl2, 25 mM NaHCO3, and 11.0 mM glucose; purchased from Sigma-Aldrich, St. Louis, MO). […] The tension of the aortic rings was continuously measured with the Lab Chart 7 data acquisition system (ADInstruments, Colorado Springs, CO). […]
(§2) To assess the effect of CFZ on vascular contraction, the aortic rings were pre-treated with or without CFZ for 2 hours, followed by treatment with an increasing concentration of phenylephrine (PE) from 10 nM to 1 μM. […] The contraction was continuously measured and plotted as percent contraction normalized to the response of KPSS. […] The relaxation was continuously measured and plotted as percent relaxation normalized to the response with 1 μM PE.

The test system of data set [2] is rat aortic rings. The experiment in a line: Sodium nitroprusside-induced relaxation of phenylephrine-precontracted rat aortic rings.
Method: An isometric myograph (DMT 620M) was used for ex vivo measurement of vascular function. Eight-to 10-week old Sprague Dawley rats (purchased from Charles River Laboratories, Wilmington, MA) were first anesthetized with 3% isoflurane and then euthanized using inhaled desflurane. The aortas were isolated in an ice-cold, oxygenated (95% O2, 5% CO2) Krebs-Henseleit buffer (118.3 mM NaCl, 4.7 mM KCl, 1.2 mM MgSO4, 1.2 mM KH2PO4, 2.5 mM CaCl2, 25 mM NaHCO3, and 11.0 mM glucose; purchased from Sigma-Aldrich, St. Louis, MO). The thoracic aorta was carefully cleaned to remove perivascular fat and cut into 2-mm rings that were mounted between two stainless steel wires in the myograph chamber containing 8 mL of Krebs-Henseleit buffer in 95% O2 and 5% CO2 at 37° C. First, the rings were equilibrated in the chamber for 20 minutes, followed by a gradual increase of mechanical stretch until a final stretch of 10 mN (Newton) was reached. After an additional incubation with fresh buffer for 30 minutes, the rings were constricted with 8 mL of 80 mM KPSS (43 mM NaCl, 80 mM KCl, 2.5 mM CaCl2, 1.2 mM MgSO4, 1.2 mM KH2PO4, 25.0 mM NaHCO3, and 11.0 mM glucose) for 15 to 20 minutes, followed by 3 washes with the Krebs-Henseleit buffer until the force returned to the baseline stretch. The tension of the aortic rings was continuously measured with the Lab Chart 7 data acquisition system (ADInstruments, Colorado Springs, CO). In Some of the experiments the aortic rings were pre-treated with 100 μM N(gamma)-nitro-L-arginine methyl ester (L-NAME; Sigma-Aldrich) and 10 μM indomethacin for 10 minutes prior to the pre-incubation with CFZ (Amgen Inc.) for 2 hours. After an additional incubation with fresh buffer for 30 minutes, the rings were constricted with 8 mL of 80 mM KPSS (43 mM NaCl, 80 mM KCl, 2.5 mM CaCl2, 1.2 mM MgSO4, 1.2 mM KH2PO4, 25.0 mM NaHCO3, and 11.0 mM glucose) for 15 to 20 minutes, followed by 3 washes with the Krebs-Henseleit buffer until the force returned to the baseline stretch. The tension of the aortic rings was continuously measured with the Lab Chart 7 data acquisition system (ADInstruments, Colorado Springs, CO).
For assessment of the effect of CFZ on vascular relaxation, the pre-treated aortic rings were incubated with 1 μM PE for 20 minutes to induce contraction. For experiments involving sildenafil and tadalafil, a 10-minute pre-treatment with 30 nM of these smooth muscle relaxants was done prior to the incubation with CFZ. After reaching a stable contraction, ACh, sodium nitroprusside (SNP), nifedipine, riociguat, or cinaciguat was added to the chamber at an increasing concentration from 100 pM to 10 μM; each stepwise concentration increase was added after the response to the current concentration reached a plateau. The relaxation was continuously measured and plotted as percent relaxation normalized to the response with 1 μM PE.
Aortas were isolated from 8-10 week old CD® (Sprague Dawley) rats (from Charles River Laboratories) in an ice-cold, oxygenated (95% O2, 5% CO2) Krebs-Henseleit buffer. The aortas were then carefully cleaned to remove perivascular fat and cut into 2-mm rings that were mounted between two stainless steel wires in the myograph chamber containing 8 mL of Krebs-Henseleit buffer in 95% O2 and 5% CO2 at 37° C. Rings were stretch until a final stretch of 10 mN (Newton) was reached and incubated for 30 mins for equilibration.
In data set [3] the test system is rat aortic rings. The experiment in a line: Nifedipine-induced relaxation of rat aortic rings. The following applies: pretreatment of aortic rings with CFZ (FIG. 2C). As to the method:
as §1, §2

Data set [4] has as its system rat aortic rings. The experiment in a line: sGC activator (cinaciguat, riociguat)-induced relaxation of rat aortic rings. The following applies: cinaciguat or riociguat (FIG. 4C). As to the method: An isometric myograph (DMT 620M) was used for ex vivo measurement of vascular function. Eight-to 10-week old Sprague Dawley rats (purchased from Charles River Laboratories, Wilmington, MA) were first anesthetized with 3% isoflurane and then euthanized using inhaled desflurane. The aortas were isolated in an ice-cold, oxygenated (95% O2, 5% CO2) Krebs-Henseleit buffer (118.3 mM NaCl, 4.7 mM KCl, 1.2 mM MgSO4, 1.2 mM KH2PO4, 2.5 mM CaCl2, 25 mM NaHCO3, and 11.0 mM glucose; purchased from Sigma-Aldrich, St. Louis, MO). The thoracic aorta was carefully cleaned to remove perivascular fat and cut into 2-mm rings that were mounted between two stainless steel wires in the myograph chamber containing 8 mL of Krebs-Henseleit buffer in 95% O2 and 5% CO2 at 37° C. First, the rings were equilibrated in the chamber for 20 minutes, followed by a gradual increase of mechanical stretch until a final stretch of 10 mN (Newton) was reached. After an additional incubation with fresh buffer for 30 minutes, the rings were constricted with 8 mL of 80 mM KPSS (43 mM NaCl, 80 mM KCl, 2.5 mM CaCl2, 1.2 mM MgSO4, 1.2 mM KH2PO4, 25.0 mM NaHCO3, and 11.0 mM glucose) for 15 to 20 minutes, followed by 3 washes with the Krebs-Henseleit buffer until the force returned to the baseline stretch. The tension of the aortic rings was continuously measured with the Lab Chart 7 data acquisition system (ADInstruments, Colorado Springs, CO). […] The tension of the aortic rings was continuously measured with the Lab Chart 7 data acquisition system (ADInstruments, Colorado Springs, CO).
as §2

Another data set concerns GUCY1A3. The experiment in a line: GUCY1A3 gene expression by RT-PCR in human aortic smooth muscle cells. The conditions noted are these: 24-hour treatment, 2.7 μM CFZ, SMCs (FIG. 4B). The data set is classed as cell-based. As to the method: To confirm whether results could be replicated in human tissue, human aortic smooth muscle cells (Lonza, Walkersville, MD) were cultured in SmGM-2™ Smooth Muscle Cell Growth Medium-2 BulletKit™ (Lonza). The cells were maintained at 37° C. in a humidified incubator with 5% CO2. Cells were seeded at a concentration of 2.5×10^5 cells/mL of medium. After 1 day of culture, fresh medium with or without 2.7 μM CFZ was added and incubated for 6 or 24 hours.
Cell pellets were lysed in Buffer RLT (Qiagen, Germantown, MD) supplemented with β-mercaptoethanol (Bio-Rad, Hercules, CA). RNA was isolated and purified using QIAcube (Qiagen). The RNA concentration and quality were determined by NanoDrop 8000 spectrophotometer (Thermo Fisher Scientific, Wilmington, DE). DNA contaminant was removed through DNase I (Promega, Madison, WI) digestion prior to quantitative RT-PCR. Quantitative RT-PCR was performed in the QuantStudio 7 Flex RT-PCR system (Thermo Fisher Scientific) with RNA-to-CT 1-Step Kit (Thermo Fisher Scientific) and TaqMan assays (Applied Biosystems, Foster City, CA). The TaqMan assays were GUCY1A3(Hs01015574_m1) and 18S rRNA. Multiplex reactions were run in triplicates with the genes of interest and 18S rRNA normalization control. The average relative quantities were calculated from three separate experiments.

Data set [5] can be described thus: Highest applicable CFZ concentration in the myograph chamber (saturation, precipitation). The conditions noted are these: oxygenated myograph chamber, Krebs-Henseleit buffer. The data set is classed as physicochemical.
The subject of data set [6] is isolated rabbit hearts and aortic strips. The following applies: cited from earlier work.

As for `CC(C)C[C@H](NC(=O)[C@H](CCc1ccccc1)NC(=O)CN1CCOCC1)C(=O)N[C@@H](Cc1ccccc1)C(=O)N[C@@H](CC(C)C)C(=O)[C@@]1(C)CO1` [CFZ, carfilzomib], the “effect on phenylephrine-induced vascular contraction” value in the data set with rat aortic rings [1] (CFZ 0.3, 0.9 or 2.7 μM, increasing phenylephrine (FIG. 1C)) was “No significant CFZ effect on vascular contraction”. In the data set on rat aortic rings [1] (CFZ vs vehicle, increasing potassium chloride (FIG. 1D)), the “effect on potassium chloride-induced vascular contraction” value is given as “No significant CFZ effect on vascular contraction”. The “EC50 for SNP-induced relaxation, CFZ alone” value in the data set with rat aortic rings [2] (FIG. 5A experiment, vehicle alone 7.2×10^−9) is listed as 1.7×10^−8. Further, in the data set on rat aortic rings [2] (in the presence of CFZ 2.7 μM, vehicle alone 1.8×10^−8), the “EC50 for SNP-induced relaxation in the presence of L-NAME and indomethacin” value is 4.3×10^−8. For the same compound, the “effect on SNP-induced relaxation” value with rat aortic rings [2] (rings pretreated with CFZ, increasing SNP (FIG. 2B)) is recorded as “appeared to interfere with SNP-induced relaxation”. The “effect on vascular relaxation in the presence of nifedipine” value with rat aortic rings [3] is “did not appear to significantly affect vascular relaxation”. Moreover, the “effect on VSM relaxation in the presence of sGC activators” value with rat aortic rings [4] was “did not interfere with VSM relaxation”. In addition, the “upregulation of GUCY1A3 gene expression” value in the data set on GUCY1A3 is “more than 25 fold”. Moreover, the highest CFZ concentration that could be applied; further increase gave saturated solution and precipitation in data set [5] turned out to be 2.7 µM. In data set [6], the “coronary perfusion pressure, resting vascular tone, and spasmogenic effects” value is reported as “increased”; the “vasodilating effect induced by acetylcholine (ACh)” value is on record as “sharply reduced”.

The values are drawn from patent US20260144798A1, “Disruption of Vascular Smooth Muscle Relaxation by Carfilzomib May be the Primary Reason for CFZ-Induced Vascular Dysfunction” (AMGEN INC., priority 2019, published 2026).
